Each structure is given as a SMILES string.

The first assay deals with Human immunodeficiency virus type 1 protease (Human immunodeficiency virus 1, UniProt Q72874). The experiment in a line: Inhibition of HIV-1 Protease.
Settings: not given
As usually defined, the IC50 is the concentration that gives 50% inhibition. A lower IC50 goes with greater potency. Turning to `CC(C)(C)NC(=O)[C@@H]1C[C@@H]2CCCC[C@@H]2CN1C[C@@H](O)[C@H](Cc1ccccc1)NC(=O)[C@H]1CCCS(=O)(=O)C1`, the IC50 was 0.0235 µM.

The compound `CC(C)(C)NC(=O)[C@@H]1C[C@@H]2CCCC[C@@H]2CN1C[C@@H](O)[C@H](Cc1ccccc1)NC(=O)[C@H]1CCS(=O)(=O)C1` showed an IC50 of 0.193 µM. As for `CC(C)(C)NC(=O)[C@@H]1C[C@@H]2CCCC[C@@H]2CN1C[C@@H](O)[C@H](Cc1ccccc1)NC(=O)[C@@H]1CCS(=O)(=O)C1`, 0.2 µM corresponded to half-maximal inhibition (IC50).

Take `CC(C)(C)NC(=O)[C@@H]1C[C@@H]2CCCC[C@@H]2CN1C[C@@H](O)[C@H](Cc1ccccc1)NC(=O)[C@@H]1CCSC1`: the IC50 stood at 0.342 µM.

`CC(C)(C)NC(=O)[C@@H]1C[C@@H]2CCCC[C@@H]2CN1C[C@@H](O)[C@H](Cc1ccccc1)NC(=O)C1=CCCS(=O)(=O)C1`: inhibition was half-maximal at 0.0547 µM (IC50). In turn, `CC(C)(C)NC(=O)[C@@H]1C[C@@H]2CCCC[C@@H]2CN1C[C@@H](O)[C@H](Cc1ccccc1)NC(=O)[C@@H]1CCCS(=O)(=O)C1` came in with an IC50 of 0.0092 µM. With `CC(C)(C)NC(=O)[C@@H]1C[C@@H]2CCCC[C@@H]2CN1C[C@@H](O)[C@H](Cc1ccccc1)NC(=O)[C@H]1CCCSC1`, the IC50 stood at 0.0988 µM. The same measure, in the same setting: for `CC(C)(C)NC(=O)[C@@H]1C[C@@H]2CCCC[C@@H]2CN1C[C@@H](O)[C@H](Cc1ccccc1)NC(=O)[C@H]1CCSC1` the value was 0.65 µM; for `CC(C)(C)NC(=O)[C@@H]1C[C@@H]2CCCC[C@@H]2CN1C[C@@H](O)[C@H](Cc1ccccc1)NC(=O)C1=CCCSC1`, 0.167 µM. Still for that read-out and setting: to `CC(C)(C)NC(=O)[C@@H]1C[C@@H]2CCCC[C@@H]2CN1C[C@@H](O)[C@H](Cc1ccccc1)NC(=O)[C@@H]1CCCSC1` belongs 0.0784 µM.

For another assay, the system named is MT4. Description: Inhibitory activity against HIV-1 in MT-4 lymphoid cells infected with IIIb. In kind it is functional. To be noted: Homo sapiens, read-out: CIC95.
For `CC(C)(C)NC(=O)[C@@H]1C[C@@H]2CCCC[C@@H]2CN1C[C@@H](O)[C@H](Cc1ccccc1)NC(=O)[C@H]1CCCS(=O)(=O)C1`, the IC95 is 0.4 µM. On to `CC(C)(C)NC(=O)[C@@H]1C[C@@H]2CCCC[C@@H]2CN1C[C@@H](O)[C@H](Cc1ccccc1)NC(=O)[C@@H]1CCCS(=O)(=O)C1`, for which the IC95 was found to be 0.2 µM.

Values taken from ChEMBL document CHEMBL1128144, “Cyclic sulfone-3-carboxamides as novel P2-ligands for Ro 31-8959 based HIV-1 protease inhibitors” (Bioorg Med Chem Lett, 1995).
